Experiments:
Type in all cases: in vivo
[1] = tested on: barnyardgrass (Echinochloa crus-galli); assay: Test A preemergence; conditions: Echinochloa crus-galli, pre-emergence, 240 h
In short: (§1)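 Compounds were formulated in a non-phytotoxic solvent mixture with surfactant and applied as a preemergence directed soil spray after seeding, or sprayed postemergence over plants 2 to 10 cm tall at the one- to two-leaf stage. Evaluation after about 10 d compared treated with untreated controls, using a scale from 0 (no effect) to 100 (complete control).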

[2] = tested on: ragweed (common ragweed, Ambrosia elatior); assay: Test A preemergence; conditions: Ambrosia artemisiifolia, pre-emergence, 240 h
In short: as §1

[3] = tested on: Kochia (Kochia scoparia); assay: Test A preemergence; conditions: Bassia scoparia, pre-emergence, 240 h
In short: as §1

[4] = tested on: ryegrass, Italian (Italian ryegrass, Lolium multiflorum); assay: Test A preemergence; conditions: Lolium multiflorum, pre-emergence, 240 h
In short: as §1

[5] = tested on: giant foxtail (Setaria faberii); assay: Test A preemergence; conditions: Setaria faberi, pre-emergence, 240 h
In short: as §1

[6] = tested on: wheat (Triticum aestivum); assay: Test A postemergence; conditions: Triticum aestivum, post-emergence, 240 h, 125 g ai/ha, postemergence; visual injury after approximately 10 d; 0 to 100 scale (0 no effect, 100 complete control); read-out: Plant response rating, Wheat
In short: as §1

[7] = tested on: barnyardgrass (Echinochloa crus-galli); assay: Test A postemergence; conditions: Echinochloa crus-galli, post-emergence, 240 h, 125 g ai/ha, postemergence; visual injury after approximately 10 d; 0 to 100 scale (0 no effect, 100 complete control); read-out: Plant response rating, Barnyardgrass
In short: as §1

[8] = tested on: pigweed (Amaranthus retroflexus); assay: Test A postemergence; conditions: Amaranthus retroflexus, post-emergence, 240 h, 125 g ai/ha, postemergence; visual injury after approximately 10 d; 0 to 100 scale (0 no effect, 100 complete control); read-out: Plant response rating, Pigweed
In short: as §1

[9] = tested on: blackgrass (Alopecurus myosuroides); assay: Test A postemergence; conditions: Alopecurus myosuroides, post-emergence, 240 h, 125 g ai/ha, postemergence; visual injury after approximately 10 d; 0 to 100 scale (0 no effect, 100 complete control); read-out: Plant response rating, Blackgrass
In short: as §1

[10] = tested on: ragweed (common ragweed, Ambrosia elatior); assay: Test A postemergence; conditions: Ambrosia artemisiifolia, post-emergence, 240 h, 125 g ai/ha, postemergence; visual injury after approximately 10 d; 0 to 100 scale (0 no effect, 100 complete control); read-out: Plant response rating, Ragweed
In short: as §1

[11] = tested on: Galium (catchweed bedstraw, Galium aparine); assay: Test A postemergence; conditions: Galium, post-emergence, 240 h, 125 g ai/ha, postemergence; visual injury after approximately 10 d; 0 to 100 scale (0 no effect, 100 complete control); read-out: Plant response rating, Galium
In short: as §1

[12] = tested on: corn (Zea mays); assay: Test A postemergence; conditions: Zea mays, post-emergence, 240 h, 125 g ai/ha, postemergence; visual injury after approximately 10 d; 0 to 100 scale (0 no effect, 100 complete control)
In short: as §1

[13] = tested on: Kochia (Kochia scoparia); assay: Test A postemergence; conditions: Bassia scoparia, post-emergence, 240 h, 125 g ai/ha, postemergence; visual injury after approximately 10 d; 0 to 100 scale (0 no effect, 100 complete control); read-out: Plant response rating, Kochia
In short: as §1

[14] = tested on: ryegrass, Italian (Italian ryegrass, Lolium multiflorum); assay: Test A postemergence; conditions: Lolium multiflorum, post-emergence, 240 h, 125 g ai/ha, postemergence; visual injury after approximately 10 d; 0 to 100 scale (0 no effect, 100 complete control); read-out: Plant response rating, Ryegrass, Italian
In short: as §1

[15] = tested on: giant foxtail (Setaria faberii); assay: Test A postemergence; conditions: Setaria faberi, post-emergence, 240 h, 125 g ai/ha, postemergence; visual injury after approximately 10 d; 0 to 100 scale (0 no effect, 100 complete control); read-out: Plant response rating, Foxtail, Giant
In short: as §1

## CN1C[C@H](c2cccc([N+](=O)[O-])c2)[C@@H](C(=O)Nc2cccc(F)c2F)C1=O (racemic) [Compound 776]
[1]; 125 g ai/ha, preemergence, visual rating after approx. 10 d, 0 to 100 scale where 0 is no effect and 100 is complete control, read-out: Plant response rating, Barnyardgrass
  pest or weed control at 125 g/ha: 90%
[1]; 500 g ai/ha, Preemergence, visual injury vs untreated controls after approximately 10 d, read-out: Barnyardgrass plant response rating (0 to 100 scale where 0 is no effect and 100 is complete control)
  pest or weed control at 500 g/ha: 90%
[2]; 125 g ai/ha, preemergence, visual rating after approx. 10 d, 0 to 100 scale where 0 is no effect and 100 is complete control, read-out: Plant response rating, Ragweed
  pest or weed control at 125 g/ha: 30%
[2]; 500 g ai/ha, Preemergence, visual injury vs untreated controls after approximately 10 d, read-out: Ragweed plant response rating (0 to 100 scale where 0 is no effect and 100 is complete control)
  pest or weed control at 500 g/ha: 80%
[3]; 125 g ai/ha, preemergence, visual rating after approx. 10 d, 0 to 100 scale where 0 is no effect and 100 is complete control, read-out: Plant response rating, Kochia
  pest or weed control at 125 g/ha: 50%
[3]; 500 g ai/ha, Preemergence, visual injury vs untreated controls after approximately 10 d, read-out: Kochia plant response rating (0 to 100 scale where 0 is no effect and 100 is complete control)
  pest or weed control at 500 g/ha: 60%
[4]; 125 g ai/ha, preemergence, visual rating after approx. 10 d, 0 to 100 scale where 0 is no effect and 100 is complete control, read-out: Plant response rating, Ryegrass, Italian
  pest or weed control at 125 g/ha: 20%
[4]; 500 g ai/ha, Preemergence, visual injury vs untreated controls after approximately 10 d, read-out: Ryegrass, Italian plant response rating (0 to 100 scale where 0 is no effect and 100 is complete control)
  pest or weed control at 500 g/ha: 50%
[5]; 125 g ai/ha, preemergence, visual rating after approx. 10 d, 0 to 100 scale where 0 is no effect and 100 is complete control, read-out: Plant response rating, Foxtail, Giant
  pest or weed control at 125 g/ha: 90%
[5]; 500 g ai/ha, Preemergence, visual injury vs untreated controls after approximately 10 d, read-out: Foxtail, Giant plant response rating (0 to 100 scale where 0 is no effect and 100 is complete control)
  pest or weed control at 500 g/ha: 100%
[6]
  plant injury at 125 g/ha: 30%
[7]
  pest or weed control at 125 g/ha: 80%
[8]
  pest or weed control at 125 g/ha: 0%
[9]
  pest or weed control at 125 g/ha: 30%
[10]
  pest or weed control at 125 g/ha: 0%
[11]
  pest or weed control at 125 g/ha: 20%
[12]
  Corn plant response rating (crop injury, 0 = no effect, 100 = complete kill) at 125 g/ha: 30%
[13]
  pest or weed control at 125 g/ha: 20%
[14]
  pest or weed control at 125 g/ha: 20%
[15]
  pest or weed control at 125 g/ha: 80%

Source: patent US12077503B2, “Substituted cyclic amides and their use as herbicides” (FMC CORPORATION, priority 2015, dated 2024)
